Results: patent US20030161893A1, “PTPase inhibitors and methods of using the same” (priority 2001, published 2003)

Target: T1, SHP-1 (Mus musculus, UniProt P29351)
T1 construct: made in house
Assay: In vitro PTPase assay, GST/SHP-1 fusion protein
Format: biochemical
Method: In vitro PTPase activities were measured using the commercial protein tyrosine phosphatase assay kit (Upstate Biotechnology, Inc. (“UBI”)) following established procedure known to one of skill in the art. […] 100 μl of Malachite Green solution was added and incubated for 5 minutes, and the absorbance at 660 nm was measured after 5 minutes.
The beads were then either subjected to in vitro PTPase assays or washed 3 times in Tris buffer then subjected to in vitro PTPase assays.
Briefly, individual PTPases (0.1 μg/reaction) in 50 μL of PTPase buffer (50 mM Tris, pH 7.4) were incubated at 22° C. for 10 minutes or as indicated in the absence or presence of inhibitory compounds. […] […] […] Relative PTPase activities were calculated based on the formula: (PTPase activity in the presence of an inhibitory compound/PTPase activity in the absence of the compound)×100%. To assess the reversibility of PTPase inhibition, GST fusion proteins of the PTPases bound on glutathione beads (Pharmacia) were pre-incubated with cold Tris buffer (50 mM Tris, pH 7.0) or Tris buffer containing the inhibitor at 4° C. for 30 minutes. The beads were then washed three times in cold Tris buffer or not washed prior to subjecting to in vitro PTPase assays.

T1 sequence (P29351 whole entry): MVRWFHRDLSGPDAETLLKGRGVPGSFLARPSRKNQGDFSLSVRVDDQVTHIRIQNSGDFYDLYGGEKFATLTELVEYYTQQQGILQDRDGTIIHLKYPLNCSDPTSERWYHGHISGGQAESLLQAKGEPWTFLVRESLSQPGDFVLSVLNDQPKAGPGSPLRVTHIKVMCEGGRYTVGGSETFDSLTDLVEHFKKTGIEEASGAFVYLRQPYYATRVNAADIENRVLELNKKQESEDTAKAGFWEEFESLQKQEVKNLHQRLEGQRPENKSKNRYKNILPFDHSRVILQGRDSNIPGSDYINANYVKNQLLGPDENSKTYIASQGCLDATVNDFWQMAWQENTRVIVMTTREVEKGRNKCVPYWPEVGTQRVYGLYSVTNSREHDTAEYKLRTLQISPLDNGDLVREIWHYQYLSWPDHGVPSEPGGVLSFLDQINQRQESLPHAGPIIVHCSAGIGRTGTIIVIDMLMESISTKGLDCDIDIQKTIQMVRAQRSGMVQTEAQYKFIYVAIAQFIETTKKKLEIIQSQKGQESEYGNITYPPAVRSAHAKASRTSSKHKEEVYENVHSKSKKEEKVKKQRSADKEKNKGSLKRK

O.O.O.O.O.O.O.O.O.O=C([O-])[C@@H]1[O][Sb]2([O-])([O][Sb]34([OH])[O][C@H]([C@H](O)CO)[C@H]([O]3)[C@H](C(=O)[O-])[O]4)[O][C@H]([C@H](O)CO)[C@@H]1[O]2.[Na+].[Na+].[Na+] [sodium stibogluconate]
dephosphorylation of pNPP by SHP-1, SHP-2 and PTP1B (pNPP substrate): similarly inhibited | activity against recombinant SHP-1 of HPLC fractions and parental mixture (parental mixture at Sb concentration of 10 μg/ml): inactivated SHP-1 | reversibility of SHP-1 inhibition by washing (pre-incubated at 4° C. 30 minutes, beads washed 3 times): not affected by washing
